Experimental data: patent US11779600B2, “Methods of treating or preventing alzheimer's disease and associated conditions” (CEDARS-SINAI MEDICAL CENTER, priority 2016, dated 2023)

Tested on: bone marrow-derived macrophages (MΦ^BM)
Experiment: Fibrillar Aβ1-42 phagocytosis assay in bone marrow-derived macrophages
Type: cell-based, mouse
Method: Lyophilized non-fluoro amyloid-β1-42 peptide (#20276; Anaspec) was initially monomerized by dissolving it in ice-cold HFIP (hexafluoroisopropanol) (#52512; Sigma) to a final concentration of 1 mM and then aliquoted in sterile siliconized microcentrifuge tubes. The HFIP was first evaporated while in the sterile hood and then under vacuum conditions in a SpeedVac for 2 h to remove any trace of HFIP; the peptide film was stored at −20° C. until use. To induce fibril formation, fluoro (HiLyte647; #64161; Anaspec) and non-fluoro amyloid-β1-42 films were resuspended in media to which 10% of sterile NaOH 60 mM was first added and the media were vortexed for 30 s. Then, a sterile 45% H2O and a sterile 45% solution of 20 mM NaH2PO4+Na2HPO4 (pH 7.4) were added, and the media were vortexed again and incubated on a shaker for 2 weeks at 37° C. Pre-formed amyloid-β1-42 fibrils were then sonicated for 60 s and diluted to 100 nM using the same media prior to the phagocytosis assay.
To test amyloid-β phagocytosis by macrophage, in repeated experiments monocytes were isolated from the bone marrow of wild-type mice (n=18 mice) and differentiated into macro-phage by 7-day cultivation in complete RPMI-1640 medium (#21870; Life Technologies) with 10% serum and 20 ng/ml MCSF (#315-02; PeproTech). Bone marrow-derived macrophages (MΦBM) were generated from femurs and tibiae cultured for 6-7 days in complete RPMI 1640 medium (Life Technologies) with 10% FBS, 100 U/ml penicillin, 100 μg/ml streptomycin, 2 mM L-glutamine and 20 ng/ml MCSF (PeproTech). Primary cultures of macrophage were then plated at 1.2×10^5 cells per well (3-4 wells for each condition) in 24-well tissue-culture plates on glass cover-slips overnight. Next, macrophages were either treated with 30 μg/ml GA (Copaxone®; TEVA Neuroscience), Brefeldin A (BFA; Sigma, 1X), or 10 μM Minocycline (Sigma) for the duration of 1, 3, or 24 h, or not treated (control group). Before addition of fibrillar amyloid-β1-42, the cells were chilled in a 4° C. ice bath for 5 min; immediately after addition of the preformed fibrillar amyloid-β1-42 (100 nM), the plates were centrifuged at 515g in 25° C. followed by incubation at 37° C. for 30 or 60 min. The cells were then rinsed with amyloid-β-free medium to remove non-incorporated amyloid-β and later washed twice with PBS. Methanol (99.8%) at −20° C. for 20 min or 4% paraformaldehyde at room temperature for 12 min was used for fixation of the cells followed by repeated washes with PBS. […] The fluorescent signal and its total area were determined and quantified by the conversion of individual images to greyscale and standardizing to baseline using histogram-based thresholds with NIH ImageJ software. […]

glatiramer acetate [GA]
increase of Aβ phagocytosis (24 hours treatment, then fAβ1-42 for 30 min, quantitative ICC (FIG. 16E)): 2.5 fold | increase of fibrillar Aβ1-42 uptake in MΦ^BM (GA pretreated, 100 nM fibrillar Aβ1-42 for 30 min, qICC and ELISA): 2.5-2.85 fold | rise in fAβ1-42 uptake (GA-treated MΦ (FIG. 5D)): 2.8 fold
